Assays:
Format in all cases: cell-based
[1] = tested on: MCF7F cells (fulvestrant-resistant); assay: MTT cell viability / cell death rate, MCF7F cells (Example 1); conditions: 48 hours; for Cell Death Rate/% mean: mean of triplicate; for Cell Death Rate/% 1: replicate 1; for Cell Death Rate/% 2: replicate 2; for Cell Death Rate/% 3: replicate 3
Experimental: MCF7F cells (fulvestrant-resistant) were maintained at 37° C. in 5% CO2 in RPMI 1640 medium (10-040-CV, Coming cellgro) supplemented with 10% FBS (10270-106, GIBCO), 1% penicillin and 1% streptomycin, and used before the 10th subculture, wherein these cells were in house prepared by culturing MCF7 cells (TCHu 74, National Collection of Authenticated Cell Cultures) in medium containing 1 μM fulvestrant for approximately 18 months (Hong Liu et al., Cooperative effect of gefitinib and fumitremorgin c on cell growth and chemosensitivity in estrogen receptor alpha negative fulvestrant-resistant MCF-7 cells. Int J Oncol. 2006. 29(5):1237-1246).
(§1) Briefly, the MCF7F cells were cultured at 37° C. in 5% CO2 in RPMI 1640 medium supplemented with i) 10% FBS, ii) 1% penicillin and 1% streptomycin, and iii) AZD2281 (final concentration at 800 nM), ABT888 (final concentration at 800 nM), Compound 605B (final concentration at 25 nM), 605B+AZD2281 (final concentration at 25 nM and 800 nM), 605B+ABT888 (final concentration at 25 nM and 800 nM), or PBS (vehicle), for 48 hours. Then, cell viability was determined by a MTT assay. The test was done in triplicate.
(§2) Cell death rate was calculated by the following formula. Cell death rate=[1−(ODtest[…])]×100%
(§3) Cell death rates were analyzed using student's t-test, and group differences were deemed statistically significant when the p-value was lower than 0.05. Zheng-Jun Jin's Q value was calculated using the formula Q=EA+B/(EA+EB−EA×EB) to assess the combined effect of Compound 605B and the PARP inhibitor, wherein EA+B, EA, and EB referred to the cell death rates caused by the combined treatment, 605B treatment and PARP inhibitor treatment, respectively. A Q value higher than 1.15 meant a synergistic […] effect.

MMTV-HER2 [2] = assay: MTT cell death rate, MMTV-HER2 cells, 605B with AZD2281 (Example 2); conditions: 48 hours; for Cell Death Rate/% 1: replicate 1; for Cell Death Rate/% 2: replicate 2; for Cell Death Rate/% 3: replicate 3
Experimental: as §2, §3
(§4) The combined use of Compound 605 and AZD2281 was further tested in other breast cancer cell lines, including BT474 (TCHu 143, National collection of Authenticated Cell Cultures), MCF7 (TCHu 74, National collection of Authenticated Cell Cultures), and MMTV-HER2 (a gift from Dr. Liguang-L, Shanghai Institute of Materia Medica, Chinese Academy of Sciences).
as §1, with “these” for “the MCF7F”, “and” for “and 1%”, “AZD2281” for “AZD2281 (final concentration at 800 nM), ABT888”, “nM),” for “nM), 605B+ABT888 (final concentration at 25 nM and 800 nM),”, “PBS,” for “PBS (vehicle),”

BT474 [3] = assay: MTT cell death rate, BT474 cells, 605B with AZD2281 (Example 2); conditions: 48 hours; for Cell Death Rate/% 1: replicate 1; for Cell Death Rate/% 2: replicate 2; for Cell Death Rate/% 3: replicate 3
Experimental: as §2, §3, §4
as §1, with “these” for “the MCF7F”, “and” for “and 1%”, “AZD2281” for “AZD2281 (final concentration at 800 nM), ABT888”, “nM),” for “nM), 605B+ABT888 (final concentration at 25 nM and 800 nM),”, “PBS,” for “PBS (vehicle),”

MCF7 [4] = assay: MTT cell death rate, MCF7 cells, 605B with AZD2281 (Example 2); conditions: 48 hours; for Cell Death Rate/% 1: replicate 1; for Cell Death Rate/% 2: replicate 2; for Cell Death Rate/% 3: replicate 3
Experimental: as §2, §3, §4
as §1, with “these” for “the MCF7F”, “and” for “and 1%”, “AZD2281” for “AZD2281 (final concentration at 800 nM), ABT888”, “nM),” for “nM), 605B+ABT888 (final concentration at 25 nM and 800 nM),”, “PBS,” for “PBS (vehicle),”

MCF7 [5] = assay: MTT cell death rate, MCF7 cells, 605B with Rucaparib (Example 3); conditions: 48 hours; for Cell Death Rate/% 1: replicate 1; for Cell Death Rate/% 2: replicate 2; for Cell Death Rate/% 3: replicate 3
Experimental: as §2, §3
(§5) Compound 605B was tested with another PARP inhibitor, AG014699 (Rucaparib), for the inhibitory effects on breast tumor cell lines, including BT474, MCF7, and MMTV-HER2.
(§6) Briefly, these cells were cultured at 37° C. in 5% CO2 in RPMI 1640 medium supplemented with i) 10% FBS, ii) 1% penicillin and 1% streptomycin, and iii) AZD2281 (final concentration at 800 nM), Compound 605B (final concentration at 25 nM), 605B+AZD2281 (final concentration at 25 nM and 800 nM), or PBS, for 48 hours. Then, cell viability was determined by the MTT assay. The test was done in triplicate.

MMTV-HER2 [6] = assay: MTT cell death rate, MMTV-HER2 cells, 605B with Rucaparib (Example 3); conditions: 48 hours; for Cell Death Rate/% 1: replicate 1; for Cell Death Rate/% 2: replicate 2; for Cell Death Rate/% 3: replicate 3
Experimental: as §2, §3, §5, §6

BT474 [7] = assay: MTT cell death rate, BT474 cells, 605B with Rucaparib (Example 3); conditions: 48 hours; for Cell Death Rate/% 1: replicate 1; for Cell Death Rate/% 2: replicate 2; for Cell Death Rate/% 3: replicate 3
Experimental: as §2, §3, §5, §6

## C[C@]1(c2nc3c(C(N)=O)cccc3[nH]2)CCCN1 [ABT888, Veliparib]
[1]; final concentration 800 nM
  Cell Death Rate/% mean: 4.63%
  Cell Death Rate/% 1: 4.69%
  Cell Death Rate/% 2: 4.28%
  Cell Death Rate/% 3: 4.93%

## O=C(c1cc(Cc2n[nH]c(=O)c3ccccc23)ccc1F)N1CCN(C(=O)C2CC2)CC1 [AZD2281, Olaparib]
MMTV-HER2 [2]; final concentration 800 nM
  Cell Death Rate/% mean: 8.28%
  Cell Death Rate/% 1: 8.34%
  Cell Death Rate/% 2: 8.46%
  Cell Death Rate/% 3: 8.05%
[1]; final concentration 800 nM
  Cell Death Rate/% mean: 5.55%
  Cell Death Rate/% 1: 5.86%
  Cell Death Rate/% 2: 5.42%
  Cell Death Rate/% 3: 5.37%
BT474 [3]; final concentration 800 nM
  Cell Death Rate/% mean: 5.28%
  Cell Death Rate/% 1: 5.47%
  Cell Death Rate/% 2: 5.1%
  Cell Death Rate/% 3: 5.27%
MCF7 [4]; final concentration 800 nM
  Cell Death Rate/% mean: 5.34%
  Cell Death Rate/% 1: 5.34%
  Cell Death Rate/% 2: 5.39%
  Cell Death Rate/% 3: 5.66%

## NC(=O)c1nnc(N[C@H]2CCCNC2)c2cc(-c3cccc(F)c3)sc12 [Compound 605B, 2-(3-fluorophenyl)-4-(3-piperidineamino)-thieno[2,3-d]pyridazine-7-carboxylic acid amide]
MCF7 [5]; final concentration 25 nM
  Cell Death Rate/% mean: 8.41%
  Cell Death Rate/% 1: 8.5%
  Cell Death Rate/% 2: 8.39%
  Cell Death Rate/% 3: 8.33%
MMTV-HER2 [6]; final concentration 25 nM
  Cell Death Rate/% mean: 9.11%
  Cell Death Rate/% 1: 9.13%
  Cell Death Rate/% 2: 8.90%
  Cell Death Rate/% 3: 9.29%
MMTV-HER2 [2]; final concentration 25 nM
  Cell Death Rate/% mean: 8.50%
  Cell Death Rate/% 1: 8.69%
  Cell Death Rate/% 2: 8.33%
  Cell Death Rate/% 3: 8.47%
[1]
  inhibitory effects on cells / cell death rates (in words): little inhibitory effects
[1]; final concentration 25 nM
  Cell Death Rate/% mean: 4.97%
  Cell Death Rate/% 1: 5.03%
  Cell Death Rate/% 2: 5.22%
  Cell Death Rate/% 3: 4.67%
BT474 [3]; final concentration 25 nM
  Cell Death Rate/% mean: 7.67%
  Cell Death Rate/% 1: 7.72%
  Cell Death Rate/% 2: 7.45%
  Cell Death Rate/% 3: 7.83%
BT474 [7]; final concentration 25 nM
  Cell Death Rate/% mean: 8.47%
  Cell Death Rate/% 1: 8.49%
  Cell Death Rate/% 2: 8.24%
  Cell Death Rate/% 3: 8.67%
MCF7 [4]; final concentration 25 nM
  Cell Death Rate/% mean: 6.51%
  Cell Death Rate/% 1: 6.51%
  Cell Death Rate/% 2: 6.38%
  Cell Death Rate/% 3: 6.72%

## CNCc1ccc(-c2[nH]c3cc(F)cc4c3c2CCNC4=O)cc1 [Rucaparib]
MCF7 [5]; final concentration 800 nM
  Cell Death Rate/% mean: 6.66%
  Cell Death Rate/% 1: 6.88%
  Cell Death Rate/% 2: 6.46%
  Cell Death Rate/% 3: 6.65%
MMTV-HER2 [6]; final concentration 800 nM
  Cell Death Rate/% mean: 7.50%
  Cell Death Rate/% 1: 7.54%
  Cell Death Rate/% 2: 7.68%
  Cell Death Rate/% 3: 7.29%
BT474 [7]; final concentration 800 nM
  Cell Death Rate/% mean: 7.60%
  Cell Death Rate/% 1: 7.63%
  Cell Death Rate/% 2: 7.77%
  Cell Death Rate/% 3: 7.39%
